From patent EP2818472A1, “Imidazo[4,5-c]pyridine and pyrrolo[3,2-c]pyridine compounds as G-protein-coupled receptor kinase 5 (GRK5) modulators” (Max-Planck-Gesellschaft zur Förderung der Wissenschaften …, priority 2013, dated 2014) come the findings set out here.

The assay deals with beta-TC6 cells. Put plainly: Insulin HTRF assay (relative activity Ar) in beta-TC6 cells. It is filed as cell-based, mouse. As to conditions: Mus musculus, Beta-TC6, 4 h, insulin HTRF, supernatant of beta-TC6 cells, incubation with test compound at 37°C for 2, 3, 4h; read-out: Ar (relative activity). The method, boiled down:
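beta-TC6 cells (15k/well, seeded 24 or 48 h) washed, then exposed to compound in induction buffer (0.5% DMSO final) for 2, 3 or 4 h at 37°C.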
A general note: In TR-FRET formats the signal depends on donor and acceptor labels being close together.
`CNc1nc2cnc(Nc3cccc(N(C)C)c3)cc2n1Cc1ccco1` [Compound 522, N6-[3-(dimethylamino)phenyl]-1-(2-furylmethyl)-N2-methyl-imidazo[4,5-c]pyridine-2,6-diamine]: the Emax is 30 to 50%. Turning to `CNc1nc2cnc(-c3ccccc3)cc2n1Cc1ccc(OC)c(OC)c1` [Compound 669, 1-[(3,4-dimethoxyphenyl)methyl]-N-methyl-6-phenyl-imidazo[4,5-c]pyridin-2-amine], the Emax was in the range of 30 to 50%. In the case of `COc1cccc(-c2cc3c(Nc4ccccc4)nccc3[nH]2)c1` [Compound 309, 2-(3-methoxyphenyl)-N-phenyl-1H-pyrrolo[3,2-c]pyridin-4-amine] it was 30 to 50%; in that of `CC(C)[C@H](CO)Nc1nccc2[nH]c(-c3ccncc3)nc12` [Compound 429, (2R)-3-methyl-2-[[2-(4-pyridyl)-1H-imidazo[4,5-c]pyridin-4-yl]amino]butan-1-ol], 0 to 30%; in that of `CC(=O)Nc1cccc(Nc2nccc3[nH]c(-c4ccsc4)cc23)c1` [Compound 266, N-[3-[[2-(3-thienyl)-1H-pyrrolo[3,2-c]pyridin-4-yl]amino]phenyl]acetamide], 50 to 100%. In the case of `COc1ccc(Nc2cc3[nH]c(-c4ccc(C(=O)N(C)C)cc4)cc3cn2)cc1OC` [Compound 21, 4-[6-(3,4-dimethoxyanilino)-1H-pyrrolo[3,2-c]pyridin-2-yl]-N,N-dimethyl-benzamide] it was 50 to 100%; in that of `CC(=O)Nc1cccc(Nc2nccc3[nH]c(-c4ccccc4)cc23)c1` [Compound 323, N-[3-[(2-phenyl-1 H-pyrrolo[3,2-c]pyridin-4-yl)amino]phenyl]acetamide], 50 to 100%. To `COc1ncccc1-c1cc2c(cn1)nc(NCc1cccc(C)c1)n2C` [Compound 586, 6-(2-methoxy-3-pyridyl)-1-methyl-N-(m-tolylmethyl)imidazo[4,5-c]pyridin-2-amine] belongs 30 to 50%; to `COc1ccc(Nc2cc3[nH]c(-c4cccc(F)c4)cc3cn2)cc1OC` [Compound 7, N-(3,4-dimethoxyphenyl)-2-(3-fluorophenyl)-1H-pyrrolo[3,2-c]pyridin-6-amine], 50 to 100%; to `COc1ccc(Nc2nccc3[nH]c(-c4ccccc4Cl)nc23)cc1OC` [Compound 458, 2-(2-chlorophenyl)-N-(3,4-dimethoxyphenyl)-1H-imidazo[4,5-c]pyridin-4-amine], 50 to 100%.

Turning to `COc1ccc(Nc2nccc3[nH]c(-c4ccncc4)nc23)cc1` [Compound 427, N-(4-methoxyphenyl)-2-(4-pyridyl)-1H-imidazo[4,5-c]pyridin-4-amine], the Emax fell in the range of 50 to 100%.

As for `CNc1nc2cnc(Nc3ccc(OC)cc3)cc2n1-c1cccc(C(F)(F)F)c1` [Compound 547, N6-(4-methoxyphenyl)-N2-methyl-1-[3-(trifluoromethyl)phenyl]imidazo[4,5-c]pyridine-2,6-diamine], the Emax fell in the range of 30 to 50%. In the case of `CNc1nc2cnc(Nc3ccc(OC)c(OC)c3)cc2n1-c1cccc(C(F)(F)F)c1` [Compound 545, N6-(3,4-dimethoxyphenyl)-N2-methyl-1-[3-(trifluoromethyl)phenyl]imidazo[4,5-c]pyridine-2,6-diamine], the Emax was 30 to 50%. In the case of `Cn1cc(-c2cc3c(cn2)nc(NCc2ccccc2)n3C)cn1` [Compound 624, N-benzyl-1-methyl-6-(1-methylpyrazol-4-yl)imidazo[4,5-c]pyridin-2-amine] it was 30 to 50%. In the case of `COc1cccc(Nc2nccc3[nH]c(-c4ccc5c(c4)OCCO5)nc23)c1` [Compound 410, 2-(2,3-dihydro-1,4-benzodioxin-6-yl)-N-(3-methoxyphenyl)-1H-imidazo[4,5-c]pyridin-4-amine] it was 30 to 50%; in that of `CNc1nc2cnc(Nc3cccc(OC)c3)cc2n1CCN1CCOCC1` [Compound 552, N6-(3-methoxyphenyl)-N2-methyl-1-(2-morpholinoethyl)imidazo[4,5-c]pyridine-2,6-diamine], 30 to 50%. To `Cc1cccc(-c2nc3c(NCCc4ccccn4)nccc3[nH]2)c1` [Compound 437, 2-(m-tolyl)-N-[2-(2-pyridyl)ethyl]-1H-imidazo[4,5-c]pyridin-4-amine] belongs 30 to 50%. For the compound `CC(=O)N(C)c1cccc(-c2cc3c(Nc4ccc(OC(F)(F)F)cc4)nccc3n2C)c1` [Compound 248, N-methyl-N-[3-[1-methyl-4-[4-(trifluoromethoxy)anilino]pyrrolo[3,2-c]pyridin-2-yl]phenyl]acetamide], the Emax is 0 to 30%. To `Oc1cccc(Nc2nccc3[nH]c(-c4ccc5c(c4)OCCO5)nc23)c1` [Compound 418, 3-[[2-(2,3-dihydro-1,4-benzodioxin-6-yl)-1H-imidazo[4,5-c]pyridin-4-yl]amino]phenol] belongs 50 to 100%; to `COc1ccc(Nc2cc3c(cn2)cc(-c2cccnc2)n3C)cn1` [Compound 86, N-(6-methoxy-3-pyridyl)-1-methyl-2-(3-pyridyl)pyrrolo[3,2-c]pyridin-6-amine], 50 to 100%; to `COc1ccc(CNc2nc3cnc(Nc4ccc(OC)c(OC)c4)cc3n2C)cc1OC` [Compound 603, N6-(3,4-dimethoxyphenyl)-N2-[(3,4-dimethoxyphenyl)methyl]-1-methyl-imidazo[4,5-c]pyridine-2,6-diamine], 50 to 100%.

As to `COc1ccc(Nc2nccc3[nH]c(-c4cccc(OC)c4F)nc23)cc1O` [Compound 479, 5-[[2-(2-fluoro-3-methoxy-phenyl)-1H-imidazo[4,5-c]pyridin-4-yl]amino]-2-methoxy-phenol], the Emax is greater than 100%.

`Fc1ccc(Nc2cc3[nH]c(-c4cn[nH]c4)cc3cn2)cc1` [Compound 114, N-(4-fluorophenyl)-2-(1H-pyrazol-4-yl)-1H-pyrrolo[3,2-c]pyridin-6-amine]: the Emax is 50 to 100%.

As to `c1ccc(-c2cc3cnc(Nc4ccncc4)cc3[nH]2)cc1` [Compound 178, 2-phenyl-N-(4-pyridyl)-1H-pyrrolo[3,2-c]pyridin-6-amine], the Emax was in the range of 30 to 50%. In the case of `COc1ccc(-c2cc3c(cn2)ncn3-c2cccc(C(F)(F)F)c2)cc1OC` [Compound 734, 6-(3,4-dimethoxyphenyl)-1-[3-(trifluoromethyl)phenyl]imidazo[4,5-c]pyridine] it was 30 to 50%; in that of `CNc1nc2cnc(Nc3ccc(C(N)=O)cc3)cc2n1-c1cccc(F)c1` [Compound 681, 4-[[1-(3-fluorophenyl)-2-(methylamino)imidazo[4,5-c]pyridin-6-yl]amino]benzamide], 50 to 100%. In the case of `CNc1nc2cnc(Nc3cccc(C)c3)cc2n1CCN1CCOCC1` [Compound 556, N2-methyl-1-(2-morpholinoethyl)-N6-(m-tolyl)imidazo[4,5-c]pyridine-2,6-diamine] it was 30 to 50%; in that of `Fc1cccc(-c2nc3c(NCCc4ccccn4)nccc3[nH]2)c1` [Compound 406, 2-(3-fluorophenyl)-N-[2-(2-pyridyl)ethyl]-1H-imidazo[4,5-c]pyridin-4-amine], 50 to 100%.

For `COc1cccc(Nc2nccc3[nH]c(-c4cccnc4)nc23)c1` [Compound 358, N-(3-methoxyphenyl)-2-(3-pyridyl)-1H-imidazo[4,5-c]pyridin-4-amine], the Emax fell in the range of 50 to 100%. In the case of `COc1cccc(-c2cc3c(cn2)ncn3Cc2ccc(OC)c(OC)c2)c1` [Compound 754, 1-[(3,4-dimethoxyphenyl)methyl]-6-(3-methoxyphenyl)imidazo[4,5-c]pyridine] it was 0 to 30%.
